Biological target: T1, Pantetheinase (Homo sapiens, UniProt O95497)
T1 sequence (O95497 whole entry): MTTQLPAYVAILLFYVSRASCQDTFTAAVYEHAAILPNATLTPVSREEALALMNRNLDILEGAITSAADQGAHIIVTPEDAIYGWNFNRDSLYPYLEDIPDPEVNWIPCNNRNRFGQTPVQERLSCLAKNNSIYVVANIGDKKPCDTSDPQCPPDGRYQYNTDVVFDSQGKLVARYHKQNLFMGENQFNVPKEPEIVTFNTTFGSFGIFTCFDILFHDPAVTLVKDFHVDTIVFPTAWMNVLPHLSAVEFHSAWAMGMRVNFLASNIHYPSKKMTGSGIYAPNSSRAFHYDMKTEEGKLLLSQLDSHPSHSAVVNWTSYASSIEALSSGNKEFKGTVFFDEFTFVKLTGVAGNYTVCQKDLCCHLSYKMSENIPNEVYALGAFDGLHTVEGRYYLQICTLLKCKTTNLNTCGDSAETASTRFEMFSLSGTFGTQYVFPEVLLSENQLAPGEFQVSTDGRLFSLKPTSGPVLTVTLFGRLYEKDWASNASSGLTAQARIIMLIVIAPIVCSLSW
Test: Inhibition of human vanin-1 in whole blood
Assay type: tissue-based

Structure (SMILES)	IC50 [nM]
CN(C(=O)[C@@H]1CCCO1)[C@H]1CCN(C(=O)c2ccc(NC(C)(C)C)nc2)C1	2.7
CCC(C)(C)Nc1ccc(C(=O)N2CC[C@H](N(C)C(C)=O)C2)cn1	3.1
CC(C)(C)Nc1ccc(C(=O)N2CC[C@H](N3CCOC3=O)C2)cn1	4

Further molecules by falling IC50, results first:

IC50 [nM]	Structure (SMILES)
3.6	CN(C(=O)C1CC(F)(F)C1)[C@H]1CCN(C(=O)c2ccc(NC(C)(C)C)nc2)C1
2.7	CC(C)(C)Nc1ccc(C(=O)N2CC(C)(c3ccccn3)C2)cn1
1.6	CC(=O)N(C)[C@H]1CCN(C(=O)c2ccc(NC(C)(C)CCO)nc2)C1

Reference: ChEMBL document CHEMBL4725410, “Novel Heteroaromatic Compounds as Vanin Inhibitors” (ACS Med Chem Lett, 2020)
